In publication PMC7765952, “N-(Hydroxyalkyl) Derivatives of tris(1H-indol-3-yl)methylium Salts as Promising Antibacterial Agents: Synthesis and Biological Evaluation” (Pharmaceuticals, 2020):

test system: S. aureus ATCC 700699; test: MIC by microdilution, S. aureus ATCC 700699; format: cell-based, Staphylococcus aureus; conditions: Staphylococcus aureus, ATCC700699
Description: (§1) Compounds were tested against Gram-positive and Gram-negative bacteria, including sensitive or drug resistant strains from American Type Culture Collection (ATCC), as well as resistant clinical isolates from the culture collection of the Laboratory for Control of Hospital Infections (Sechenov University, Moscow, Russia). Collection cultures of Gram-positive bacteria: Staphylococcus aureus ATCC 25923, Staphylococcus aureus ATCC 3798, Staphylococcus aureus ATCC 700,699 and clinical isolates of Gram-positive bacteria: Staphylococcus aureus 5, Staphylococcus aureus 10, Staphylococcus aureus 100 KS, Staphylococcus epidermidis 533, Enterococcus faecium 569 and collection cultures of Gram-negative bacteria: Escherichia coli ATCC 25922, Klebsiella pneumoniae ATCC 13883, Salmonella cholerasuis ATCC 14,028 were used.
(§2) For the cultivation of the strains, various nutrient media were used: Trypticase Soy Agar BBL for Staphylococcus sp., E. coli, K. pneumoniae, S. cholerasuis and Columbia Agar Base BBL for the cultivation of Enterococcus sp. Cultures grown on appropriate nutrient media at 35 °C for 1 day were used to set up experiments. For determination of the antibacterial action Mueller-Hinton (Acumedia, Baltimore, MD, USA) liquid medium was used. The minimum inhibitory concentrations (MIC) were determined by the microdilution method in 96 well sterile plates in a cation-adjusted Müller-Hinton medium in accordance with the requirements of the Institute of Clinical and Laboratory Standards (CLSI/NCCLS). MIC was defined as the minimum drug concentration that completely prevents the growth of the test organism.

Compound | MIC [µg/mL]
CCN(CC)c1ccc(C(=C2C=CC(=[N+](CC)CC)C=C2)c2ccccc2)cc1 [BG, brilliant green, reference compound] | 1

same assay, conditions: Staphylococcus aureus, ATCC700699; S. aureus ATCC 700699, resistant to levofloxacin; read-out: MIC

MIC [µg/mL] | Compound
32 | OCCn1cc([C+](c2cn(CCO)c3ccccc23)c2cn(CCO)c3ccccc23)c2ccccc21.[Cl-] [8a, tris(1-(2-Hydroxyethyl)-1H-indol-3-yl)methylium chloride]
8 | OCCCCn1cc([C+](c2cn(CCCCO)c3ccccc23)c2cn(CCCCO)c3ccccc23)c2ccccc21.[Cl-] [8c, tris(1-(4-Hydroxybutyl)-1H-indol-3-yl)methylium chloride]

test system: P. aeruginosa ATCC 27853; test: MIC by microdilution, P. aeruginosa ATCC 27853; format: cell-based; conditions: Pseudomonas aeruginosa, ATCC27853
Description: as §2

Compound | MIC [µg/mL]
CCN(CC)c1ccc(C(=C2C=CC(=[N+](CC)CC)C=C2)c2ccccc2)cc1 [BG, brilliant green, reference compound] | > 64

same assay, conditions: Pseudomonas aeruginosa, ATCC27853; P. aeruginosa ATCC 27853; read-out: MIC

MIC [µg/mL] | Compound
> 64 | OCCn1cc([C+](c2cn(CCO)c3ccccc23)c2cn(CCO)c3ccccc23)c2ccccc21.[Cl-] [8a, tris(1-(2-Hydroxyethyl)-1H-indol-3-yl)methylium chloride]
> 64 | OCCCCn1cc([C+](c2cn(CCCCO)c3ccccc23)c2cn(CCCCO)c3ccccc23)c2ccccc21.[Cl-] [8c, tris(1-(4-Hydroxybutyl)-1H-indol-3-yl)methylium chloride]

test system: E. faecium 569; test: MIC by microdilution, E. faecium 569; format: cell-based, Enterococcus faecium; conditions: Enterococcus faecium, 569
Description: as §1, §2

Compound | MIC [µg/mL]
CCN(CC)c1ccc(C(=C2C=CC(=[N+](CC)CC)C=C2)c2ccccc2)cc1 [BG, brilliant green, reference compound] | 0.25

same assay, conditions: Enterococcus faecium; E. faecium 569, resistant to cefuroxime, clindamycin, gentamycin, vancomycin, doxycycline; read-out: MIC

MIC [µg/mL] | Compound
> 64 | OCCn1cc([C+](c2cn(CCO)c3ccccc23)c2cn(CCO)c3ccccc23)c2ccccc21.[Cl-] [8a, tris(1-(2-Hydroxyethyl)-1H-indol-3-yl)methylium chloride]
> 64 | OCCCCn1cc([C+](c2cn(CCCCO)c3ccccc23)c2cn(CCCCO)c3ccccc23)c2ccccc21.[Cl-] [8c, tris(1-(4-Hydroxybutyl)-1H-indol-3-yl)methylium chloride]

test system: E. coli ATCC 25922; test: MIC by microdilution, E. coli ATCC 25922; format: cell-based, Escherichia coli; conditions: Escherichia coli, ATCC25922
Description: as §1, §2

Compound | MIC [µg/mL]
CCN(CC)c1ccc(C(=C2C=CC(=[N+](CC)CC)C=C2)c2ccccc2)cc1 [BG, brilliant green, reference compound] | 4

same assay, conditions: Escherichia coli, ATCC25922; E. coli ATCC 25922; read-out: MIC

MIC [µg/mL] | Compound
16 | OCCn1cc([C+](c2cn(CCO)c3ccccc23)c2cn(CCO)c3ccccc23)c2ccccc21.[Cl-] [8a, tris(1-(2-Hydroxyethyl)-1H-indol-3-yl)methylium chloride]
32 | OCCCCn1cc([C+](c2cn(CCCCO)c3ccccc23)c2cn(CCCCO)c3ccccc23)c2ccccc21.[Cl-] [8c, tris(1-(4-Hydroxybutyl)-1H-indol-3-yl)methylium chloride]

test system: S. aureus ATCC 3798; test: MIC by microdilution, S. aureus ATCC 3798; format: cell-based; conditions: Staphylococcus aureus, ATCC3798
Description: as §1, §2

Compound | MIC [µg/mL]
CCN(CC)c1ccc(C(=C2C=CC(=[N+](CC)CC)C=C2)c2ccccc2)cc1 [BG, brilliant green, reference compound] | 0.06

same assay, conditions: Staphylococcus aureus, ATCC3798; S. aureus ATCC 3798, multiresistant incl. ciprofloxacin, levofloxacin; read-out: MIC

MIC [µg/mL] | Compound
32 | OCCn1cc([C+](c2cn(CCO)c3ccccc23)c2cn(CCO)c3ccccc23)c2ccccc21.[Cl-] [8a, tris(1-(2-Hydroxyethyl)-1H-indol-3-yl)methylium chloride]
16 | OCCCCn1cc([C+](c2cn(CCCCO)c3ccccc23)c2cn(CCCCO)c3ccccc23)c2ccccc21.[Cl-] [8c, tris(1-(4-Hydroxybutyl)-1H-indol-3-yl)methylium chloride]

test system: K. pneumoniae ATCC 13883; test: MIC by microdilution, K. pneumoniae ATCC 13883; format: cell-based; conditions: Klebsiella pneumoniae, ATCC13883
Description: as §1, §2

Compound | MIC [µg/mL]
CCN(CC)c1ccc(C(=C2C=CC(=[N+](CC)CC)C=C2)c2ccccc2)cc1 [BG, brilliant green, reference compound] | 8

same assay, conditions: Klebsiella pneumoniae, ATCC13883; K. pneumoniae ATCC 13883; read-out: MIC

MIC [µg/mL] | Compound
> 64 | OCCn1cc([C+](c2cn(CCO)c3ccccc23)c2cn(CCO)c3ccccc23)c2ccccc21.[Cl-] [8a, tris(1-(2-Hydroxyethyl)-1H-indol-3-yl)methylium chloride]
8 | OCCCCn1cc([C+](c2cn(CCCCO)c3ccccc23)c2cn(CCCCO)c3ccccc23)c2ccccc21.[Cl-] [8c, tris(1-(4-Hydroxybutyl)-1H-indol-3-yl)methylium chloride]

test system: S. aureus 5; test: MIC by microdilution, S. aureus 5; format: cell-based; conditions: Staphylococcus aureus, MRSA
Description: as §1, §2

Compound | MIC [µg/mL]
CCN(CC)c1ccc(C(=C2C=CC(=[N+](CC)CC)C=C2)c2ccccc2)cc1 [BG, brilliant green, reference compound] | 0.06

same assay, conditions: Staphylococcus aureus; S. aureus 5, methicillin resistant (MRSA) clinical isolate; read-out: MIC

MIC [µg/mL] | Compound
64 | OCCn1cc([C+](c2cn(CCO)c3ccccc23)c2cn(CCO)c3ccccc23)c2ccccc21.[Cl-] [8a, tris(1-(2-Hydroxyethyl)-1H-indol-3-yl)methylium chloride]
8 | OCCCCn1cc([C+](c2cn(CCCCO)c3ccccc23)c2cn(CCCCO)c3ccccc23)c2ccccc21.[Cl-] [8c, tris(1-(4-Hydroxybutyl)-1H-indol-3-yl)methylium chloride]

test system: S. cholerasuis ATCC 14028; test: MIC by microdilution, S. cholerasuis ATCC 14028; format: cell-based; conditions: Salmonella, ATCC14028
Description: as §1, §2

Compound | MIC [µg/mL]
CCN(CC)c1ccc(C(=C2C=CC(=[N+](CC)CC)C=C2)c2ccccc2)cc1 [BG, brilliant green, reference compound] | 16

same assay, conditions: Salmonella, ATCC14028; S. cholerasuis ATCC 14028; read-out: MIC

Compound | MIC [µg/mL]
OCCn1cc([C+](c2cn(CCO)c3ccccc23)c2cn(CCO)c3ccccc23)c2ccccc21.[Cl-] [8a, tris(1-(2-Hydroxyethyl)-1H-indol-3-yl)methylium chloride] | > 64
OCCCCn1cc([C+](c2cn(CCCCO)c3ccccc23)c2cn(CCCCO)c3ccccc23)c2ccccc21.[Cl-] [8c, tris(1-(4-Hydroxybutyl)-1H-indol-3-yl)methylium chloride] | > 64

test system: S. aureus ATCC 25923; test: MIC by microdilution, S. aureus ATCC 25923; format: cell-based; conditions: Staphylococcus aureus, ATCC25923
Description: as §1, §2

Compound | MIC [µg/mL]
CCN(CC)c1ccc(C(=C2C=CC(=[N+](CC)CC)C=C2)c2ccccc2)cc1 [BG, brilliant green, reference compound] | 0.06

same assay, conditions: Staphylococcus aureus, ATCC25923; S. aureus ATCC 25923, sensitive to all antibiotics; read-out: MIC

MIC [µg/mL] | Compound
32 | OCCn1cc([C+](c2cn(CCO)c3ccccc23)c2cn(CCO)c3ccccc23)c2ccccc21.[Cl-] [8a, tris(1-(2-Hydroxyethyl)-1H-indol-3-yl)methylium chloride]
16 | OCCCCn1cc([C+](c2cn(CCCCO)c3ccccc23)c2cn(CCCCO)c3ccccc23)c2ccccc21.[Cl-] [8c, tris(1-(4-Hydroxybutyl)-1H-indol-3-yl)methylium chloride]

test system: not listed separately; test: Determination of lipophilicity, LogPow by HPLC method; format: physicochemical; conditions: experimental, pH 7.4
Excerpt: We used the partition coefficient as an indicator of lipophilicity. The partition coefficient (P) is defined as the ratio of the equilibrium solute concentrations in a two-phase system of immiscible solvents. The most common in practice is the octanol-water (Pow) system. The partition coefficient is usually represented as a decimal logarithm (LogPow). It can be measured in several ways. A most advanced, accurate, and less time-consuming is the HPLC method for determining Pow using high-performance liquid chromatography. HPLC is performed on an analytical column with a solid phase containing long hydrocarbon chains chemically bound to silica gel. The retention time on such a column (Rt) is directly related to the partition coefficient Pow. The most informative in our case was the partition coefficient at a physiological pH value of 7.4. It was at this pH that the main biological experiments with the studied substances were carried out, namely tests of antimicrobial activity and cytotoxicity. HPLC was performed on a Shimadzu LC-20AD system using Kromasil-100-5-C18 (Akzo-Nobel) column, 4.6 × 250 mm, 20 °C temperature, UV detection, mobile phase A—0.2% HCOONH4), mobile phase B-MeCN, (pH 7.4), fl-1 mL/min., loop 20 mkl. After calibration using substances with a known LogPow, it is possible to recalculate Rt to LogPow. For calibration, we used aniline (LogPow 0.9), p-chloroaniline (LogPow 1.8), diphenylamine (LogPow 3.4), triphenylamine (LogPow 5.7).

LogPow | Compound
1.15 | OCCn1cc([C+](c2cn(CCO)c3ccccc23)c2cn(CCO)c3ccccc23)c2ccccc21.[Cl-] [8a, tris(1-(2-Hydroxyethyl)-1H-indol-3-yl)methylium chloride]
2.9 | OCCCCn1cc([C+](c2cn(CCCCO)c3ccccc23)c2cn(CCCCO)c3ccccc23)c2ccccc21.[Cl-] [8c, tris(1-(4-Hydroxybutyl)-1H-indol-3-yl)methylium chloride]

test system: S. aureus 100 KC; test: MIC by microdilution, S. aureus 100 KC; format: cell-based; conditions: Staphylococcus aureus, MRSA
Description: as §1, §2

Compound | MIC [µg/mL]
CCN(CC)c1ccc(C(=C2C=CC(=[N+](CC)CC)C=C2)c2ccccc2)cc1 [BG, brilliant green, reference compound] | 0.06

same assay, conditions: Staphylococcus aureus; S. aureus 100 KC, methicillin resistant (MRSA) clinical isolate; read-out: MIC

MIC [µg/mL] | Compound
64 | OCCn1cc([C+](c2cn(CCO)c3ccccc23)c2cn(CCO)c3ccccc23)c2ccccc21.[Cl-] [8a, tris(1-(2-Hydroxyethyl)-1H-indol-3-yl)methylium chloride]
16 | OCCCCn1cc([C+](c2cn(CCCCO)c3ccccc23)c2cn(CCCCO)c3ccccc23)c2ccccc21.[Cl-] [8c, tris(1-(4-Hydroxybutyl)-1H-indol-3-yl)methylium chloride]

test system: S. aureus 10; test: MIC by microdilution, S. aureus 10; format: cell-based; conditions: Staphylococcus aureus, 10
Description: as §1, §2

Compound | MIC [µg/mL]
CCN(CC)c1ccc(C(=C2C=CC(=[N+](CC)CC)C=C2)c2ccccc2)cc1 [BG, brilliant green, reference compound] | 0.13

same assay, conditions: Staphylococcus aureus; clinical isolate S. aureus 10, sensitive to all antibiotics; read-out: MIC

MIC [µg/mL] | Compound
16 | OCCn1cc([C+](c2cn(CCO)c3ccccc23)c2cn(CCO)c3ccccc23)c2ccccc21.[Cl-] [8a, tris(1-(2-Hydroxyethyl)-1H-indol-3-yl)methylium chloride]
8 | OCCCCn1cc([C+](c2cn(CCCCO)c3ccccc23)c2cn(CCCCO)c3ccccc23)c2ccccc21.[Cl-] [8c, tris(1-(4-Hydroxybutyl)-1H-indol-3-yl)methylium chloride]

test system: S. epidermidis 533; test: MIC by microdilution, S. epidermidis 533; format: cell-based; conditions: Staphylococcus epidermidis, 533
Description: as §1, §2

Compound | MIC [µg/mL]
CCN(CC)c1ccc(C(=C2C=CC(=[N+](CC)CC)C=C2)c2ccccc2)cc1 [BG, brilliant green, reference compound] | 0.06

same assay, conditions: Staphylococcus epidermidis; S. epidermidis 533, resistant to gentamicin; read-out: MIC

MIC [µg/mL] | Compound
32 | OCCn1cc([C+](c2cn(CCO)c3ccccc23)c2cn(CCO)c3ccccc23)c2ccccc21.[Cl-] [8a, tris(1-(2-Hydroxyethyl)-1H-indol-3-yl)methylium chloride]
16 | OCCCCn1cc([C+](c2cn(CCCCO)c3ccccc23)c2cn(CCCCO)c3ccccc23)c2ccccc21.[Cl-] [8c, tris(1-(4-Hydroxybutyl)-1H-indol-3-yl)methylium chloride]
